Measurements taken from ChEMBL document CHEMBL4270617, “Design, synthesis, antimicrobial, antiquorum-sensing and antitumor evaluation of new series of pyrazolopyridine derivatives” (Eur J Med Chem, 2018).
pIC50: −log10 of the molar value. In brackets after ≈: the same amount, converted by molar mass.

Key:
MCF7 = experiment: Antitumor activity against human MCF7 cells assessed as inhibition of cell proliferation after 48 hrs by MTT assay; format: functional, cell-based; conditions: MCF7, 48 h
[1] = Displacement of methyl green from DNA (unknown origin) incubated in dark for 24 hrs
Staphylococcus aureus = experiment: Antibacterial activity against Staphylococcus aureus ATCC 29213 after 24 hrs by two-fold serial dilution method; format: functional; conditions: ATCC 29213, 24 h
Candida albicans = experiment: Antifungal activity against Candida albicans after 48 hrs by two-fold serial dilution method; format: functional
Escherichia coli = experiment: Antibacterial activity against Escherichia coli ATCC 12435 after 24 hrs by two-fold serial dilution method; format: functional; conditions: ATCC 12435, 24 h
Aspergillus flavus = experiment: Antifungal activity against Aspergillus flavus 3375 after 48 hrs by two-fold serial dilution method; format: functional; conditions: Aspergillus flavus, 3375, 48 h
Bacillus cereus = experiment: Antibacterial activity against Bacillus cereus UW 85 after 24 hrs by two-fold serial dilution method; format: functional; conditions: UW 85, 24 h
Aspergillus fumigatus = experiment: Antifungal activity against Aspergillus fumigatus 293 after 48 hrs by two-fold serial dilution method; format: functional; conditions: Aspergillus fumigatus, 293, 48 h
Pseudomonas aeruginosa = experiment: Antibacterial activity against Pseudomonas aeruginosa PAO1 after 24 hrs by two-fold serial dilution method; format: functional; conditions: PAO1, 24 h
HepG2 = experiment: Antitumor activity against human HepG2 cells assessed as inhibition of cell proliferation after 48 hrs by MTT assay; format: functional, cell-based; conditions: HepG2, 48 h
[2] = tested on: Chromobacterium violaceum; experiment: Inhibition of quorum sensing system in Chromobacterium violaceum ATCC 12472 assessed as diameter of violacein pigment inhibition at 5 mg/ml after 48 hrs
HeLa = experiment: Antitumor activity against human HeLa cells assessed as inhibition of cell proliferation after 48 hrs by MTT assay; format: functional, cell-based
Ehrlich [3] = experiment: Antitumor activity against mouse EAC cells allografted in Swiss mouse assessed as viable tumor cell count at 0.5 mg/mouse administered for 9 days (reference value: 77.41 10^6/ml); format: functional
Mus musculus [4] = experiment: Toxicity in Swiss albino mouse implanted with mouse EAC cells assessed as RBC count at 0.5 mg/mouse administered for 9 days (reference value: 3.59 10^6/mm3); format: organism-based; conditions: in vivo, 216 h
WI-38 = experiment: Cytotoxicity against human W138 cells after 48 hrs by MTT assay; format: cell-based; conditions: WI-38, 48 h
WISH = experiment: Cytotoxicity against human WISH cells after 48 hrs by MTT assay; format: cell-based
Ehrlich [5] = experiment: Antitumor activity against mouse EAC cells allografted in Swiss mouse assessed as tumor volume at 0.5 mg/mouse administered for 9 days (reference value: 10.15 mL); format: functional
Mus musculus [6] = experiment: Toxicity in Swiss albino mouse implanted with mouse EAC cells assessed as hemoglobin level at 0.5 mg/mouse administered for 9 days (reference value: 7.05 g/dl); format: organism-based; conditions: in vivo, 216 h
Ehrlich [7] = experiment: Antitumor activity against mouse EAC cells allografted in Swiss mouse assessed as mean survival time at 0.5 mg/mouse administered for 9 days (reference value: 18 day); format: functional
Mus musculus [8] = experiment: Toxicity in Swiss albino mouse implanted with mouse EAC cells assessed as WBC count at 0.5 mg/mouse administered for 9 days (reference value: 20.53 10^3/mm3); format: organism-based; conditions: in vivo, 216 h
Ehrlich [9] = experiment: Antitumor activity against mouse EAC cells allografted in Swiss mouse assessed as increase in life span at 0.5 mg/mouse administered for 9 days relative to control; format: functional

Structure (SMILES) | pIC50 (MCF7) | pIC50 [1] | MIC (Staphylococcus aureus) [µM] | MIC (Candida albicans) [µM] | MIC (Escherichia coli) [µM] | MIC (Aspergillus flavus) [µM] | MIC (Bacillus cereus) [µM] | MIC (Aspergillus fumigatus) [µM] | MIC (Pseudomonas aeruginosa) [µM] | pIC50 (HepG2) | diameter of the inhibition zone (DIZ) [2] [mm] | pIC50 (HeLa; read-out: IC50) | other results
CCOC(=O)C1=C(N/C=N/c2nnc(S(N)(=O)=O)s2)Nc2[nH]nc(C)c2C1c1ccc(N(C)C)cc1 (stereo not drawn) | 4.46 | 4.10 | 118 (≈ 62.5 µg/mL) | 940 (≈ 500 µg/mL) | 940 (≈ 500 µg/mL) | 940 (≈ 500 µg/mL) | 118 (≈ 62.5 µg/mL) | 940 (≈ 500 µg/mL) | 940 (≈ 500 µg/mL) | 4.42 | 9 | 4.58 | 
CCOC(=O)C1=C(N/N=C(\C(C)=O)C(=O)c2ccccc2)Nc2[nH]nc(C)c2C1c1ccc(N(C)C)cc1 (stereo not drawn) | 4.32 |  | 1940 (≈ 1000 µg/mL) | 1940 (≈ 1000 µg/mL) | 1940 (≈ 1000 µg/mL) | 3890 (≈ 2000 µg/mL) | 1940 (≈ 1000 µg/mL) | 3890 (≈ 2000 µg/mL) | 972 (≈ 500 µg/mL) | 4.37 | < 2 | 4.32 | 
COc1ccc(C2C(C#N)=C(NC(=O)c3ccccc3)Nc3[nH]nc(-c4ccccc4)c32)cc1 (stereo not drawn) |  | 4.08 to 4.40 |  |  |  |  |  |  |  |  |  |  | 
CCOC(=O)C(=NNC1=C(C(=O)OCC)C(c2ccc(N(C)C)cc2)c2c(C)n[nH]c2N1)C(=O)OCC (stereo not drawn) | 4.05 |  | 976 (≈ 500 µg/mL) | 3900 (≈ 2000 µg/mL) | 976 (≈ 500 µg/mL) | 1950 (≈ 1000 µg/mL) | 976 (≈ 500 µg/mL) | 1950 (≈ 1000 µg/mL) | 976 (≈ 500 µg/mL) | 4.09 | < 2 | 4.08 | 
CCOC(=O)C1=C(N/N=C(/C(=O)Br)c2ccc(Br)cc2)Nc2[nH]nc(C)c2C1c1ccc(N(C)C)cc1 (stereo not drawn) | 4.21 | 4.36 | 99.1 (≈ 62.5 µg/mL) | 397 (≈ 250 µg/mL) | 397 (≈ 250 µg/mL) | 1590 (≈ 1000 µg/mL) | 99.1 (≈ 62.5 µg/mL) | 793 (≈ 500 µg/mL) | 397 (≈ 250 µg/mL) | 4.19 | < 2 | 4.16 | 
Oc1cc(O)c2c(c1)O[C@H](c1ccc(O)c(O)c1)[C@@H](O)C2 |  |  |  |  |  |  |  |  |  |  | 2 |  | 
CCOC(=O)C1=C(NN=C(C#N)C#N)Nc2[nH]nc(C)c2C1c1ccc(N(C)C)cc1 (stereo not drawn) | 4.92 | 4.36 | 4780 (≈ 2000 µg/mL) | 2390 (≈ 1000 µg/mL) | 2390 (≈ 1000 µg/mL) | 2390 (≈ 1000 µg/mL) | 2390 (≈ 1000 µg/mL) | 2390 (≈ 1000 µg/mL) | 1190 (≈ 500 µg/mL) | 4.86 | < 2 | 4.82 | Activity (Ehrlich [3]): 30.93 ×10⁶ /ml; Activity (Mus musculus [4]): 5.14 ×10⁶ /mm3; pIC50 (WI-38): 4.37; pIC50 (WISH): 4.34; Activity (Ehrlich [5]): 2.25 mL; Activity (Mus musculus [6]): 12.65 g/dL; MSD (Ehrlich [7]): 39 days; Activity (Mus musculus [8]): 10.69 ×10³ /mm3; Activity (Ehrlich [9]): 116.7%
CCOC(=O)C1=C(N/N=C(/Cl)c2ccc([N+](=O)[O-])cc2)Nc2[nH]nc(C)c2C1c1ccc(N(C)C)cc1 (stereo not drawn) | 4.28 |  | 954 (≈ 500 µg/mL) | 3820 (≈ 2000 µg/mL) | 1910 (≈ 1000 µg/mL) | 1910 (≈ 1000 µg/mL) | 1910 (≈ 1000 µg/mL) | 1910 (≈ 1000 µg/mL) | 954 (≈ 500 µg/mL) | 4.26 | < 2 | 4.34 | 
COc1cccc2c1C(=O)c1c(O)c3c(c(O)c1C2=O)C[C@@](O)(C(=O)CO)C[C@@H]3O[C@H]1C[C@H](N)[C@H](O)[C@H](C)O1 [DOXORUBICIN] |  | 4.50 |  |  |  |  |  |  |  | 5.37 |  |  | Activity (Ehrlich [3]): 16.36 ×10⁶ /ml; Activity (Mus musculus [4]): 5.32 ×10⁶ /mm3; Activity (Ehrlich [5]): 1 mL; Activity (Mus musculus [6]): 12.75 g/dL; MSD (Ehrlich [7]): 62 days; Activity (Mus musculus [8]): 8.96 ×10³ /mm3; Activity (Ehrlich [9]): 244.4%; pIC50 (HeLa): 5.29
CCOC(=O)C1=C(N/N=C(\C#N)C(N)=O)Nc2[nH]nc(C)c2C1c1ccc(N(C)C)cc1 (stereo not drawn) | 4.30 |  | 4580 (≈ 2000 µg/mL) | 4580 (≈ 2000 µg/mL) | 1150 (≈ 500 µg/mL) | 4580 (≈ 2000 µg/mL) | 2290 (≈ 1000 µg/mL) | 4580 (≈ 2000 µg/mL) | 1150 (≈ 500 µg/mL) | 4.32 | < 2 | 4.33 | 
CCOC(=O)C1=C(N/N=C(\c2ccc([N+](=O)[O-])cc2)N2CCN(c3ccc(F)cc3)CC2)Nc2[nH]nc(C)c2C1c1ccc(N(C)C)cc1 (stereo not drawn) | < 4.00 | 4.29 | 749 (≈ 500 µg/mL) | 749 (≈ 500 µg/mL) | 187 (≈ 125 µg/mL) | 3000 (≈ 2000 µg/mL) | 374 (≈ 250 µg/mL) | 3000 (≈ 2000 µg/mL) | 187 (≈ 125 µg/mL) | 4.04 | < 2 | 4.06 | 
